Data from patent US6784201B2, “Benzothiepines having activity as inhibitors of ileal bile acid transport and taurocholate uptake” (G.D. Searle & Company, priority 1994, dated 2004).

target: T1, human IBAT (Homo sapiens, UniProt Q12908); assay: In vitro assay of IBAT-mediated uptake of [14C]-taurocholate (TC) in H14 cells; format: cell-based; conditions: read-out: Human TC IC50
T1 construct: expressed in transfected cells; host or cells: Baby hamster kidney (BHK) cells, clone H14
T1 sequence (Q12908 1-348): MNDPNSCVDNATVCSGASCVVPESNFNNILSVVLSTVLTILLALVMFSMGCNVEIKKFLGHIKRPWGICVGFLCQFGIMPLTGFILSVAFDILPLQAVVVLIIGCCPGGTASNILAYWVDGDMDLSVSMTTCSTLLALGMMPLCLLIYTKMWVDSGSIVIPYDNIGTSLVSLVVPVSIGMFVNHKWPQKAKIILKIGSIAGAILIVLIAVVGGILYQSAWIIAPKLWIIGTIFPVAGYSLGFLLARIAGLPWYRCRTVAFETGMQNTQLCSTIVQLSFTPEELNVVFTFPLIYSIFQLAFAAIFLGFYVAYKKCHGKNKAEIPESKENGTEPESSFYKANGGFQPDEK
Procedure, shortened: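 BHK cells stably expressing human IBAT (H14) were incubated 2 h at 37° C with compound and 3 μM final [14C]-taurocholate in DMEM (4.5 g/L glucose) plus 0.2% fatty acid-free BSA. After cold PBS washes, cell-associated radioactivity was measured by scintillation counting.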

Q: `CCCCC1(CCCC)CS(=O)(=O)c2ccc(NC)cc2C(c2cccc(OCCOCCOCC[N+](C)(C)CCN(C)S(=O)(=O)c3ccccc3)c2)C1O` (stereo not shown) [Example 1062] was tested. Which IC50 did it give?
A: 4 nM

Q: With `C=COCC[N+](CC)(CC)CCOCCOCCOc1cccc(C2c3cc(NC)ccc3S(=O)(=O)CC(CCCC)(CCCC)C2O)c1` (stereo not shown) [Example 1063] as the compound, how does the IC50 read?
A: 4 nM

Q: `CCCCC1(CCCC)CS(=O)(=O)c2ccc(NC)cc2C(c2cccc(OCCOCCOCC[n+]3ccccc3CCN3CCCCC3)c2)C1O` (stereo not shown) [Example 1064] was tested. Which IC50 did it give?
A: 4 nM

Q: For `CCCCC1(CCCC)CS(=O)(=O)c2ccc(N(C)C)cc2C(c2cccc(OCCOCCOCC[N+](CCOCCOC)(CCOCCOC)CCOCCOC)c2)C1O` (stereo not shown) [Example 1065], which IC50 is on record?
A: 4 nM

Q: How did the IC50 turn out when `CCCCC1(CCCC)CS(=O)(=O)c2ccc(N(C)C)cc2C(c2cccc(OCCOCCOCC[n+]3cc4ccccc4c4ccccc43)c2)C1O` (stereo not shown) [Example 1066] was run?
A: 4 nM

Q: `CCCCC1(CCCC)CS(=O)(=O)c2ccc(N(C)C)cc2C(c2cccc(OCCOCCOCC[n+]3ccccc3)c2)C1O` (stereo not shown) [Example 1068] was tested. Which IC50 did it give?
A: 4 nM

Q: With `CCCCC1(CCCC)CS(=O)(=O)c2c(cc(N(C)C)cc2N(C)C)C(c2ccccc2)C1O` (stereo not shown) [Example 1069] as the compound, how does the IC50 read?
A: 4 nM

Q: Which IC50 does the source give for `CCCCC1(CCCC)CS(=O)(=O)c2ccc(N(C)C)cc2C(c2ccc(OCCOCC[n+]3ccn(CC)c3)c(F)c2)C1O` (stereo not shown) [Example 1070] here?
A: 4 nM

Q: For `CCCCC1(CCCC)CS(=O)(=O)c2ccc(N(C)C)cc2C(c2cccc(OCCOCCOCC[N+](CC)(CC)CCN(C)P(C)(=O)c3ccccc3)c2)C1O` (stereo not shown) [Example 1071], which IC50 is on record?
A: 4 nM

Q: With `CCCCC1(CCCC)CS(=O)(=O)c2ccc(N(C)C)cc2C(c2cccc(OCCOCCOCC[n+]3ccc(CO)cc3)c2)C1O` (stereo not shown) [Example 1072] as the compound, how does the IC50 read?
A: 4 nM

Q: For `CCCCC1(CCCC)CS(=O)(=O)c2ccc(N(C)C)cc2C(c2ccc(OCCOCC[N+]34CCN(CC3)CC4)c(F)c2)C1O` (stereo not shown) [Example 1073], which IC50 is on record?
A: 4 nM

Q: With `CCCCC1(CC)CS(=O)(=O)c2ccc(N(C)C)cc2C(c2ccc(OC)c(F)c2)C1O` (stereo not shown) [Example 1074] as the compound, how does the IC50 read?
A: 4 nM

Q: Which IC50 does the source give for `CCCCC1(CCCC)CS(=O)(=O)c2c(cc(N(C)C)cc2N(C)C)C(c2ccc(F)cc2)C1O` (stereo not shown) [Example 1075] here?
A: 4.3 nM

Q: For `CCCCC1(CCCC)CS(=O)(=O)c2ccc(N(C)C)cc2C(c2ccc(OCCOCCOCC[N+](C)(C)C)cc2)C1O` (stereo not shown) [Example 1076], which IC50 is on record?
A: 4.5 nM

Q: How did the IC50 turn out when `CCCCC1(CCCC)CS(=O)(=O)c2ccc(N(C)C)cc2C(c2cccc(CO)c2)C1O` (stereo not shown) [Example 1077] was run?
A: 4.5 nM

Q: `CCCCC1(CC)CS(=O)(=O)c2ccc(N(C)C)cc2C(c2cccc(OCCOCCOCC[N+](C)(C)CCCCCC[N+](C)(C)CCOCCOCCOc3cccc(C4c5cc(N(C)C)ccc5S(=O)(=O)CC(CC)(CCCC)C4O)c3)c2)C1O` (stereo not shown) [Example 1079] was tested. Which IC50 did it give?
A: 5 nM

Q: For `CCCCC1(CCCC)CS(=O)(=O)c2ccc(N(C)C)cc2C(c2cccc(OCCOCCOCC[N+](CC)(CC)CCN(C)S(=O)(=O)c3ccccc3)c2)C1O` (stereo not shown) [Example 1080], which IC50 is on record?
A: 5 nM

Q: `CCCCC1(CCCC)CS(=O)(=O)c2ccc(N(C)C)cc2C(c2cccc(OCCOCCOCC[N+](CC)(CC)CC(C)=O)c2)C1O` (stereo not shown) [Example 1081] was tested. Which IC50 did it give?
A: 5 nM

Q: With `CCCCC1(CCCC)CS(=O)(=O)c2ccc(N(C)C)cc2C(c2ccccn2)C1O` (stereo not shown) [Example 1082] as the compound, how does the IC50 read?
A: 5 nM

Q: How did the IC50 turn out when `CCCCC1(CCCC)CS(=O)(=O)c2ccc(N(C)C)cc2C(c2cccc(OCCOCCOCC[n+]3ccccc3C)c2)C1O` (stereo not shown) [Example 1083] was run?
A: 5 nM

Q: `CCCCC1(CCCC)CS(=O)(=O)c2ccc(N(C)C)cc2C(c2cccc(OCCOCCOCC[n+]3ccc(CC)cc3)c2)C1O` (stereo not shown) [Example 1084] was tested. Which IC50 did it give?
A: 5 nM

Q: With `CCCCC1(CCCC)CS(=O)(=O)c2ccc(N(C)C)cc2C(c2ccsc2)C1O` (stereo not shown) [Example 1085] as the compound, how does the IC50 read?
A: 5 nM

Q: For `CCCCC1(CCCC)CS(=O)(=O)c2ccc(N(C)C)cc2C(c2cccc(OCCOCCOCC[N+](C)(C)CCN(CC)C(=O)c3ccccc3)c2)C1O` (stereo not shown) [Example 1086], which IC50 is on record?
A: 5 nM

Q: For `CCCCC1(CCCC)CS(=O)(=O)c2ccc(N(C)C)cc2C(c2cccc(OCC[N+](CC)(CC)CC)c2)C1O` (stereo not shown) [Example 1087], which IC50 is on record?
A: 5 nM

Q: `CCCCC1(CC)CS(=O)(=O)c2ccc(N(C)C)cc2C(c2ccc3c(c2)OCO3)C1O` (stereo not shown) [Example 1088] was tested. Which IC50 did it give?
A: 5.5 nM
